Columns and labels:
Recombinant human HDAC6 = biological target: T1, Recombinant human HDAC6 (Homo sapiens, UniProt Q9UBN7); test: HDAC6 biochemical assay, AMC-labeled peptide substrate; conditions: HDAC6; read-out: HDAC Isoform IC50 (nM) 6
T1 construct: full length, MW=159 kDa; GST (N); host or cells: Sf9 insect cells (baculovirus)
T1 sequence (Q9UBN7 1-1215): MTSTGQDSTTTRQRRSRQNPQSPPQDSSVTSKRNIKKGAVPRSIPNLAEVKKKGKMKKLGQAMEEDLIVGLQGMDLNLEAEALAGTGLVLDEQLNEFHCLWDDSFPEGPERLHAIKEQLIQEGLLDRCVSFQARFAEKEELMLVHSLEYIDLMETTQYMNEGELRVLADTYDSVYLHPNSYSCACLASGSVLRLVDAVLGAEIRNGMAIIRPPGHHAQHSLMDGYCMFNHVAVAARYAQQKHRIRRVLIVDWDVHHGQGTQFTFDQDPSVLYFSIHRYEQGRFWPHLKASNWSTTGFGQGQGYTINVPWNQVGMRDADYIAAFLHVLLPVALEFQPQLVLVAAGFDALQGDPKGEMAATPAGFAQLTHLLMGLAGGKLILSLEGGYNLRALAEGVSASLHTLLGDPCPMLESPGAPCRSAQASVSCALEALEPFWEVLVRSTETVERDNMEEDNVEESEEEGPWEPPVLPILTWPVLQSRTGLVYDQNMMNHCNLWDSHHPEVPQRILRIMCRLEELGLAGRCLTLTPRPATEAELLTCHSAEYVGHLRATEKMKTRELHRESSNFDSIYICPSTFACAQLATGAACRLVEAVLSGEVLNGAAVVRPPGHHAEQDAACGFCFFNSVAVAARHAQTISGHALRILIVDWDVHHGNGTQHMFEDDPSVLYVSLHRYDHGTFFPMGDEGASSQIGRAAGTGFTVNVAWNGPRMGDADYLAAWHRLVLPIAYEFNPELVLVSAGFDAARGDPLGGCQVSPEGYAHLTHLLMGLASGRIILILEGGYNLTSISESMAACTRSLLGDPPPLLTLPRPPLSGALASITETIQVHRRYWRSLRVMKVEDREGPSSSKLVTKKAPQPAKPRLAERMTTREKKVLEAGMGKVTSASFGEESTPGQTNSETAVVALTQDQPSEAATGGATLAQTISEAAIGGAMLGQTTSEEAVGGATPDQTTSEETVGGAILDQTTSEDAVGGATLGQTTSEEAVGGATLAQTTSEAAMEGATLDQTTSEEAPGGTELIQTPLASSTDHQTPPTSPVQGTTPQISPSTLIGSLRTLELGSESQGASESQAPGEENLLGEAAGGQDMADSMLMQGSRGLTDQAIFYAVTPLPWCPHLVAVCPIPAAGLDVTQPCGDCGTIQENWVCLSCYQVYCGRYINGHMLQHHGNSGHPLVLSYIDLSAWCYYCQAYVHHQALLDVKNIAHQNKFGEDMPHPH
Method: (§1) Activity against all zinc-dependent HDACs 1 to 11 was assessed by using an acetylated AMC-labeled peptide substrate. The substrate RHKK(Ac)AMC was used for HDAC1, HDAC2, HDAC3, HDAC6 and HDAC10; the substrate used for HDAC8 was RHK(Ac)K(Ac)AMC. Activity against the class IIa HDACs (HDAC4, 5, 7, 9) and HDAC11 was determined using a class IIa-specific substrate, BOC-Lys(trifluoroacetyl)-AMC (“Trifluoroacetyl Lysine”; see Lahm et al, 2007, PNAS, 104, 17335-17340). All assays were based on the AMC-labeled substrate and developer combination.
(§2) The protocol involved a two-step reaction: first, the substrate with the acetylated lysine side chain is incubated with a sample containing HDAC activity, to produce the deacetylated products, which are then digested in the second step by the addition of developer to produce the fluorescent signal proportional to the amount of deacetylated substrates.
Recombinant human HDAC6 (GenBank Accession No. BC069243), full length, MW=159 kDa, was expressed by baculovirus in Sf9 insect cells using an N-terminal GST tag.
(§3) Assay Buffer: 50 mM Tris-HCl, pH8.0, 137 mM NaCl, 2.7 mM KCl, 1 mM MgC2. Before use, 1 mg/mL BSA and DMSO are added.
HDAC6: 0.3 ng/ul HDAC6 and 50 μM HDAC substrate are in the reaction buffer with 1% DMSO final. Incubate for 1 hours at 30° C.
(§4) Stage 1: Deacetylation of substrate by incubation of HDAC enzymes with compounds
(§5) Stage 2: Development by addition of Developer to digest the deacetylated substrate, and generate the fluorescent colour; Detection: 360/460 Ex/Em

Human HDAC1 = biological target: T2, Human HDAC1 (Homo sapiens, UniProt Q13547); test: HDAC1 biochemical assay, AMC-labeled peptide substrate; conditions: read-out: HDAC Isoform IC50 (nM) 1
T2 construct: full length with C-terminal His-tag and C-terminal FLAG-tag; His (C); FLAG (C); host or cells: baculovirus expression system
Method: as §1, §2
Human HDAC1 (GenBank Accession No. NM_004964), full length with C-terminal His-tag and C-terminal FLAG-tag, MW=56 kDa, expressed in baculovirus expression system.
as §3
HDAC1: 0.3 ng/ul HDAC1 and 50 μM HDAC substrate are in the reaction buffer with 1% DMSO final. Incubate for 1 hour at 30° C.
as §4, §5

Human HDAC4 = biological target: T3, Human HDAC4 (Homo sapiens, UniProt P56524); test: HDAC4 biochemical assay, class IIa-specific substrate; conditions: read-out: HDAC Isoform IC50 (nM) 4
T3 construct: amino acids 627-1085 with N-terminal GST tag; GST (N); host or cells: baculovirus expression system
Method: as §1, §2
Human HDAC4 (GenBank Accession No. NM_006037), amino acids 627-1085 with N-terminal GST tag, MW=75.2 kDa, expressed in baculovirus expression system.
as §3
(§6) For class IIa HDACs, assay buffer is the same.
HDAC4: 0.004 ng/ul HDAC4 and 50 μM Class IIa HDAC substrate are in the reaction buffer with 1% DMSO final. Incubate for 30 minutes at room temperature.
as §4, §5

Human HDAC9 = biological target: T4, Human HDAC9 (Homo sapiens, UniProt Q9UKV0); test: HDAC9 biochemical assay, class IIa-specific substrate; conditions: read-out: HDAC Isoform IC50 (nM) 9
T4 construct: amino acids 604-1066 with C-terminal His tag; His (C); host or cells: baculovirus expression system
Method: as §1, §2
Human HDAC9 (GenBank Accession No. NM_178423), amino acids 604-1066 with C-terminal His tag, MW=50.7 kDa, expressed in baculovirus expression system.
as §3, §6
HDAC9: 0.06 ng/ul HDAC9 and 50 μM Class IIa HDAC substrate are in the reaction buffer with 1% DMSO final. Incubate for 30 minutes at room temperature.
as §4, §5

Human HDAC5 = biological target: T5, Human HDAC5 (Homo sapiens, UniProt Q9UQL6); test: HDAC5 biochemical assay, class IIa-specific substrate; conditions: read-out: HDAC Isoform IC50 (nM) 5
T5 construct: full length with C-terminal His tag, MW=51.1 kDa; His (C); host or cells: baculovirus expression system
Method: as §1, §2
Human HDAC5 (GenBank Accession No. NM_005474), full length with C-terminal His tag, MW=51.1 kDa, expressed in baculovirus expression system.
as §3, §6
HDAC5: 0.05 ng/ul HDAC5 and 50 μM Class IIa HDAC substrate are in the reaction buffer with 1% DMSO final. Incubate for 30 minutes at room temperature.
as §4, §5

Human HDAC7 = biological target: T6, Human HDAC7 (Homo sapiens, UniProt Q8WUI4); test: HDAC7 biochemical assay, class IIa-specific substrate; conditions: read-out: HDAC Isoform IC50 (nM) 7
T6 construct: (a.a. 518-end) with N-terminal GST tag; GST (N); host or cells: baculovirus expression system
T6 sequence (Q8WUI4 518-952 limits assumed): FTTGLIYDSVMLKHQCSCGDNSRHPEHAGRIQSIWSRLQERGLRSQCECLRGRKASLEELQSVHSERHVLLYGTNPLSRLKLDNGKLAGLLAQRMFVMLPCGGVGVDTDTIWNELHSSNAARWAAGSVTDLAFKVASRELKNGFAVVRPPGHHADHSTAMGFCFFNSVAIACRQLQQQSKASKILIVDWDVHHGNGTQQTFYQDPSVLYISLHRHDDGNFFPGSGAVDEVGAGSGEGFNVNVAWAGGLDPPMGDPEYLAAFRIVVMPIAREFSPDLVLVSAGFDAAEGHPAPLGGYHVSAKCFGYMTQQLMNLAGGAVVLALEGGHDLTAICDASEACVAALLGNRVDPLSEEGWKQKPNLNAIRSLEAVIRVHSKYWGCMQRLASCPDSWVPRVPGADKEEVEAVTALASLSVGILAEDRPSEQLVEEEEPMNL
Method: as §1, §2
Human HDAC7 (GenBank Accession No. AY302468), (a.a. 518-end) with N-terminal GST tag, MW=78 kDa, expressed in baculovirus expression system.
as §3, §6
HDAC7: 0.001 ng/ul HDAC7 and 50 μM Class IIa HDAC substrate are in the reaction buffer with 1% DMSO final. Incubate for 30 minutes at room temperature.
as §4, §5

T2 sequence (Q13547 whole entry, canonical isoform): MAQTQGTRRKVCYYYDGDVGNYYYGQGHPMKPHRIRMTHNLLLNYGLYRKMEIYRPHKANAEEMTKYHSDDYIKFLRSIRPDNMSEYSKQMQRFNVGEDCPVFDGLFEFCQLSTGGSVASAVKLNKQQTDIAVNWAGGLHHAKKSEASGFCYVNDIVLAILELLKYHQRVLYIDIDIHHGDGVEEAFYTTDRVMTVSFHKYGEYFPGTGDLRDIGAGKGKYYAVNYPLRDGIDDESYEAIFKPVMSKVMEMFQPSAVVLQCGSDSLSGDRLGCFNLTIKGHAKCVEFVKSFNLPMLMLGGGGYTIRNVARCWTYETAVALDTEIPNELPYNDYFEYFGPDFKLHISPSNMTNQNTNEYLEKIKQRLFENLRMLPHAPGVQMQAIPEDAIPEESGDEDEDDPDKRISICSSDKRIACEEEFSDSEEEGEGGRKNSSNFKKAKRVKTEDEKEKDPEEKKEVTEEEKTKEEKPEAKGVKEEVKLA
T4 sequence (Q9UKV0 604-1066 isoform Q9UKV0-5): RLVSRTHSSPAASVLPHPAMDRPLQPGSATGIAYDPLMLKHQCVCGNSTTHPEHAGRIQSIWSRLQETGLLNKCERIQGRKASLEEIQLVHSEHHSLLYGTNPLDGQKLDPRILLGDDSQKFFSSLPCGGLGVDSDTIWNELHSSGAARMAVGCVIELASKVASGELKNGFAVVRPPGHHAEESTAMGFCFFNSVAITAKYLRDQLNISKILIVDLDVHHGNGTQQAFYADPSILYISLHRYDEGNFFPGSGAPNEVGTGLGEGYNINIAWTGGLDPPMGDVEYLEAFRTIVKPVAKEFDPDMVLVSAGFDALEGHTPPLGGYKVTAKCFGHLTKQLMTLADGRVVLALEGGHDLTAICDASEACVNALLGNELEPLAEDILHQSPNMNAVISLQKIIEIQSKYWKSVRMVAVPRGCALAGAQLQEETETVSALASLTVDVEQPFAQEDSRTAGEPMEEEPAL
T5 sequence (Q9UQL6 656-1122 limits assumed): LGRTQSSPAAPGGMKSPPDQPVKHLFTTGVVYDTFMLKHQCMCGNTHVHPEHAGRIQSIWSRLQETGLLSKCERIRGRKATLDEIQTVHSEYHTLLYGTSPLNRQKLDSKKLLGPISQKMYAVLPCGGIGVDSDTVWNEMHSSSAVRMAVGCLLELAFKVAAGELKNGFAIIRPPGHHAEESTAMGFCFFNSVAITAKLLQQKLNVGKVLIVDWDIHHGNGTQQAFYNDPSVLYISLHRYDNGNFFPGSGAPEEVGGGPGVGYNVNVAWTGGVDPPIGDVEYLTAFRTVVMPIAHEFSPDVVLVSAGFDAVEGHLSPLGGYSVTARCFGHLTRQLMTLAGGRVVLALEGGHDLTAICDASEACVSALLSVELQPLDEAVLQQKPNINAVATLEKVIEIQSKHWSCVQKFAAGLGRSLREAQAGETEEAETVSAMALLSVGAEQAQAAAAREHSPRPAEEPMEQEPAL
T3 sequence (P56524 627-1084 limits assumed): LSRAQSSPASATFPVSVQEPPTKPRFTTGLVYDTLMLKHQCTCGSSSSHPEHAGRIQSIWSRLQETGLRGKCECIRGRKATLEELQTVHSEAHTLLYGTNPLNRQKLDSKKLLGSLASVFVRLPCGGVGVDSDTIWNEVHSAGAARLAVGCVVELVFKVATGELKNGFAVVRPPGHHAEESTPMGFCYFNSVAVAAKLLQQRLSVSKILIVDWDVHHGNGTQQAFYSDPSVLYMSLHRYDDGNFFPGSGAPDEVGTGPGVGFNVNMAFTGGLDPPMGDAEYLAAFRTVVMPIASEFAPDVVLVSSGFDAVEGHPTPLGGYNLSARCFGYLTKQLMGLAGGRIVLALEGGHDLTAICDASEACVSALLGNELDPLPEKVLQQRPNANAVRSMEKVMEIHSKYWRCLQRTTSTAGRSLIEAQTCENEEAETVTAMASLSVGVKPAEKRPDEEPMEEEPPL

| IC50 (Recombinant human HDAC6) | IC50 (Human HDAC1) | IC50 (Human HDAC4) | IC50 (Human HDAC9) | IC50 (Human HDAC5) | IC50 (Human HDAC7) | Structure (SMILES) |
| --- | --- | --- | --- | --- | --- | --- |
| ≤ 10000 nM | > 10000 nM | > 10000 nM | > 10000 nM | ≤ 10000 nM | > 10000 nM | FC(F)(F)c1cnnc(N(Cc2ccc(-c3noc(C(F)(F)F)n3)s2)c2ncccn2)c1 [Example EK, N-(Pyrimidin-2-yl)-5-(trifluoromethyl)-N-({5-[5-(trifluoromethyl)-1,2,4-oxadiazol-3-yl]thiophen-2-yl}methyl)pyridazin-3-amine] |
| ≤ 10000 nM | > 10000 nM | ≤ 10000 nM | ≤ 10000 nM | ≤ 10000 nM | ≤ 10000 nM | Cn1ccc2nc(N(Cc3ccc(-c4noc(C(F)(F)F)n4)s3)c3cnccn3)cnc21 [Example BO, N-{5-Methyl-5H-pyrrolo[2,3-b]pyrazin-2-yl}-N-({5-[5-(trifluoromethyl)-1,2,4-oxadiazol-3-yl]thiophen-2-yl}methyl)pyrazin-2-amine] |
| ≤ 1000 nM | > 10000 nM | ≤ 10000 nM | ≤ 10000 nM | ≤ 10000 nM | ≤ 10000 nM | COc1cncnc1N(Cc1ccc(-c2noc(C(F)(F)F)n2)s1)c1cnccn1 [Example CP, 5-Methoxy-N-(pyrazin-2-yl)-N-({5-[5-(trifluoromethyl)-1,2,4-oxadiazol-3-yl]thiophen-2-yl}methyl)pyrimidin-4-amine] |
| ≤ 10000 nM | > 10000 nM | ≤ 500 nM | ≤ 1000 nM | ≤ 500 nM | ≤ 500 nM | Cc1ncncc1N(Cc1ccc(-c2noc(C(F)(F)F)n2)s1)c1cnccn1 [Example CX, 4-Methyl-N-(pyrazin-2-yl)-N-({5-[5-(trifluoromethyl)-1,2,4-oxadiazol-3-yl]thiophen-2-yl}methyl)pyrimidin-5-amine] |
| ≤ 10000 nM | > 10000 nM | ≤ 10000 nM | ≤ 10000 nM | ≤ 10000 nM | ≤ 10000 nM | FC(F)(F)c1nc(-c2ccc(CN(c3cnccn3)c3cc(N4CCOCC4)ncn3)s2)no1 [Example CL, 6-(Morpholin-4-yl)-N-(pyrazin-2-yl)-N-({5-[5-(trifluoromethyl)-1,2,4-oxadiazol-3-yl]thiophen-2-yl}methyl)pyrimidin-4-amine] |
| ≤ 1000 nM | > 10000 nM | ≤ 1000 nM | ≤ 10000 nM | ≤ 1000 nM | ≤ 1000 nM | FC(F)(F)c1nc(-c2ccc(CN(c3cnccn3)c3nccnn3)s2)no1 [Example DE, N-(Pyrazin-2-yl)-N-({5-[5-(trifluoromethyl)-1,2,4-oxadiazol-3-yl]thiophen-2-yl}methyl)-1,2,4-triazin-3-amine] |
| ≤ 10000 nM | > 10000 nM | ≤ 10000 nM | ≤ 10000 nM | ≤ 10000 nM | ≤ 10000 nM | FC(F)(F)c1cnnc(N(Cc2ccc(-c3noc(C(F)(F)F)n3)s2)c2ccncc2)c1 [Example EJ, N-(Pyridin-4-yl)-5-(trifluoromethyl)-N-({5-[5-(trifluoromethyl)-1,2,4-oxadiazol-3-yl]thiophen-2-yl}methyl)pyridazin-3-amine] |
| ≤ 10000 nM | > 10000 nM | ≤ 500 nM | ≤ 1000 nM | ≤ 500 nM | ≤ 1000 nM | Cc1cnc(N(Cc2ccc(-c3noc(C(F)(F)F)n3)s2)c2cnccn2)c(C)n1 [Example BV, 3,5-Dimethyl-N-(pyrazin-2-yl)-N-({5-[5-(trifluoromethyl)-1,2,4-oxadiazol-3-yl]thiophen-2-yl}methyl)pyrazin-2-amine] |
| ≤ 10000 nM | > 10000 nM | ≤ 10000 nM | ≤ 10000 nM | ≤ 10000 nM | ≤ 10000 nM | FC(F)(F)c1nc(-c2ccc(CN(c3ccc(C4CC4)cn3)c3cnccn3)s2)no1 [Example AA, N-(5-Cyclopropylpyridin-2-yl)-N-({5-[5-(trifluoromethyl)-1,2,4-oxadiazol-3-yl]thiophen-2-yl}methyl)pyrazin-2-amine] |
| ≤ 1000 nM | ≤ 10000 nM | ≤ 500 nM | ≤ 1000 nM | ≤ 1000 nM | ≤ 1000 nM | FC(F)(F)c1nc(-c2ccc(CN(c3cnccn3)c3ccc(-n4cccn4)nn3)s2)no1 [Example DM, N-(Pyrazin-2-yl)-6-(1H-pyrazol-1-yl)-N-({5-[5-(trifluoromethyl)-1,2,4-oxadiazol-3-yl]thiophen-2-yl}methyl)pyridazin-3-amine] |

Reference: US20210038607A1, “OXADIAZOLYLTHIOPHENE DERIVATIVES USEFUL AS HISTONE DEACETYLASE INHIBITORS” (Karus Therapeutics Limited, priority 2018, published 2021)
